According to patent publication US6875578B2, “System for cell-based screening” (priority 1997, dated 2005):

Tests used:
[1] = tested on: mitochondrial potential within LLCPK cells; test: JC-1 mitochondrial potential measurement, LLCPK cells; assay type: cell-based, pig; details: 10 μM valinomycin, within seconds of treatment
From the text: (§1) We have utilized a positively charged cyanine dye, JC-1 (Molecular Probes, Eugene, Oreg.), which diffuses into the cell and readily partitions into the mitochondrial membrane, for measurement of mitochondrial potential. The photophysics of JC-1 are such that when the probe partitions into the mitochondrial membrane and it experiences an electrical potential >140 mV, the probe aggregates and its spectral response is shifted to the red. At membrane potential values <140 mV, JC-1 is primarily monomeric and its spectral response is shifted toward the blue. Therefore, the ratio of two emission wavelengths (645 nm and 530 nm) of JC-1 partitioned into mitochondria provides a sensitive and continuous measure of mitochondrial membrane potential.
(§2) • 1. […] (2 times, 150 μl/well), the toxins were added if required, and the entire plate was scanned in a plate reader. The JC-1 monomer was measured optimally with a 485 nm excitation/530 nm emission wavelength filter set, and the aggregates were best measured with a 590 nm excitation/645 nm emission wavelength set. […]
(§3) The mitochondrial potential within several types of living cells, and the effects of toxins on the potential were measured using the fluorescence ratio Em 645 (590)/Em 530 (485) (excitation wavelengths in parentheses). For example, we measured the effect of 10 μM valinomycin on the mitochondrial potential within LLCPK cells (pig epithelia). […]

[2] = tested on: mitochondrial potential in hepatocytes; test: JC-1 mitochondrial potential measurement, hepatocytes; assay type: cell-based, rat; details: various concentrations, nearly complete within seconds to minutes
From the text: as §1, §2, §3

Structure (SMILES): CC(C)[C@@H]1NC(=O)[C@H](C)OC(=O)[C@@H](C(C)C)NC(=O)[C@@H](C(C)C)OC(=O)[C@H](C(C)C)NC(=O)[C@H](C)OC(=O)[C@@H](C(C)C)NC(=O)[C@@H](C(C)C)OC(=O)[C@H](C(C)C)NC(=O)[C@H](C)OC(=O)[C@@H](C(C)C)NC(=O)[C@@H](C(C)C)OC1=O [Valinomycin]
- reduction in mitochondrial potential (fluorescence ratio Em 645/Em 530 of JC-1) [1]: approximately 50%
- changes in mitochondrial potential [2]: sensitive to valinomycin
